US9239334B2, “Fatty acid C16: 1N7-palmitoleate a lipokine and biomarker for metabolic status” (PRESIDENT AND FELLOWS OF HARVARD COLLEGE, priority 2008, dated 2016)

Legend:
[1] = test system: AKT phosphorylation in C2C12 myotubes; test: Insulin-stimulated AKT phosphorylation in C2C12 myotubes; assay type: cell-based
Description: Values of bar plot were determined by phospho-AKT ELISA and corresponding immunoblotting results are shown as Insets.
The bottom panel is the corresponding immunoblotting of total and phosphorylated AKT in cells treated with pooled lipids.
To investigate whether plasma lipids also played a role in regulating muscle insulin action, differentiated C2C12 myotubes were treated with lipid extracts from each genotype and the insulin-stimulated AKT phosphorylation determined using an ELISA system.
The effect of C16:1n7-palmitoleate on muscle insulin signaling was explored by pre-treating C2C12 myotubes with either palmitate or palmitoleate overnight and then stimulating the cells with insulin. […] Conversely, C16:1n7-palmitoleate had little effect on its own in this in vitro setting (FIG. 3G). […]
(§1) Samples of 200 μl serum were collected using heparin-coated glass tubes and spun at 13,000 g in a microcentrifuge to separate the plasma. […] Tissue protein lysates was separated with SDS-PAGE gels and phosphorylated or total proteins were detected with the following antibodies: phospho AKT Serine 473, AKT, insulin receptor, phospho-tyrosine (Santa Cruz Biotech.); IRS-1 and IRS-2 (Upstate); phospho-GSK and GSK (Cell Signaling Tech.); phospho-insulin receptor from (Calbiocbem). […]

[2] = test system: insulin receptor, IRS-1, IRS-2 and AKT phosphorylation in liver; test: Insulin signaling in liver of lipid-infused mice (immunoblotting); assay type: in vivo; conditions: fatty acid:palmitoleate infusion 3.3 μl/min
From the text: FIGS. 7A-7G show data on the regulation of insulin signaling and glucose metabolism by palmitoleate. FIG. 7A is the basal and insulin-stimulated phosphorylation of insulin receptor (IR), insulin receptor substrate-1 (IRS-1) and -2 (IRS-2) and AKT in liver of mice infused with vehicle (Veh), TG:palmitoleate (C16:1n7) or TG:palmitate (C16). Representative blots are shown and quantifications on the right are averaged results of three mice in each treatment group. […] Representative blots are shown and quantifications on the right are averaged results of three mice in each treatment group.
The left panel presents the insulin-stimulated phosphorylation of insulin receptor and AKT in liver of mice infused with vehicle or palmitoleate. […] Mice were infused with vehicle or palmitoleate at 3.3 μl/min for six hrs, and insulin (1 U/Kg) was injected through the infusing tubing. Three minutes after insulin injection, tissues were collected and immunoblotting analyses were performed.
The present invention also provides for the regulation of insulin action by increased circulating palmitoleate. To study whether palmitoleate regulates systemic metabolic responses, lipid infusions were administered in conscious mice. Lipid infusion has been used widely to investigate the relationship between plasma FFAs and insulin resistance, but almost all studies using this protocol utilized preparations of natural lipid products containing a variety of fatty acids. Kim et al., 114 J. Clin. Invest. 823-27 (2004); Kim et al., 277 J. Biol. Chem. 32915-22 (2002); Yu et al., 277 J. Biol. Chem. 50230-36 (2002). […]
as §1

CCCCCC/C=C\CCCCCCCC(=O)O [palmitoleate, C16:1n7-palmitoleate]
insulin-stimulated AKT phosphorylation ([1]; C2C12 myotubes pre-treated with fatty acid overnight, then insulin): little effect
palmitate-induced reduction in insulin-stimulated AKT phosphorylation ([1]; co-treated with both palmitate and palmitoleate): rescued
liver insulin signaling (insulin receptor and AKT activation) [2]: enhanced
